≈ marks a conversion by molar mass, not a printed value. Like-named read-outs stand apart in the source and are kept apart here.
Columns and labels:
[1] = tested on: Mycobacterium tuberculosis (Mtb) H37Rv ATCC 27294; assay: microbe, parasite or virus in culture; type: cell-based; settings: read-out: MIC, Mtb H37Rv
Mtb DprE1 C387G = type: cell-based, Mycobacterium tuberculosis
Mtb DprE1 Y314H = type: cell-based, Mycobacterium tuberculosis
Mtb DprE1 C387S = type: cell-based, Mycobacterium tuberculosis
Mtb DprE1 OE = assay: microbe, parasite or virus in culture; type: cell-based, Mycobacterium tuberculosis
[2] = Mycobacterium tuberculosis, DPRE1OE, read-out: MIC, Mtb DprE1 OE
[3] = Mycobacterium tuberculosis, DPRE1OE, Table 5, read-out: Mtb DprE1 OE MIC

C[C@H]1COC2(CCN(c3nc(=O)c4cc(C(F)(F)F)cc([N+](=O)[O-])c4s3)CC2)O1 [BTZ043]
MIC [1]: 0.003 µM (≈ 0.00129 µg/mL) | MIC, Mtb DprE1 C387G (Mtb DprE1 C387G): >0.1 µM | MIC, Mtb DprE1 Y314H (Mtb DprE1 Y314H): 0.0015 to 0.003 µM | cross-resistance to mutant strain (Tyr314His) (Mtb DprE1 Y314H): resistance was not observed | MIC, Mtb DprE1 C387S (Mtb DprE1 C387S): >0.1 µM | MIC (Mtb DprE1 OE; [2]): 50 µM (≈ 21.6 µg/mL)

COc1ncnc(Cn2cc(C(=O)NCCF)c3ncccc32)c1C [Compound 3, N-(2-fluoroethyl)-1-((6-methoxy-5-methylpyrimidin-4-yl)methyl)-1H-pyrrolo[3,2-b]pyridine-3-carboxamide]
MIC [1]: 3.12 µM (≈ 1.07 µg/mL) | MIC, Mtb DprE1 C387G (Mtb DprE1 C387G): 0.78 µM (≈ 0.268 µg/mL) | MIC, Mtb DprE1 Y314H (Mtb DprE1 Y314H): >100 µM | MIC, Mtb DprE1 C387S (Mtb DprE1 C387S): 3.12 µM (≈ 1.07 µg/mL) | MIC (Mtb DprE1 OE; [2]): 50 µM (≈ 17.2 µg/mL)

COc1ncnc(Cn2cc(C(=O)NCCF)c3ncc(C)cc32)c1C [Compound 8, N-(2-fluoroethyl)-1-((6-methoxy-5-methylpyrimidin-4-yl)methyl)-6-methyl-1H-pyrrolo[3,2-b]pyridine-3-carboxamide]
MIC ([1]; Mycobacterium tuberculosis): 0.39 µM (≈ 0.139 µg/mL) | MIC, Mtb DprE1 C387G (Mtb DprE1 C387G): 0.39 µM (≈ 0.139 µg/mL) | MIC, Mtb DprE1 Y314H (Mtb DprE1 Y314H): >200 µM | MIC, Mtb DprE1 C387S (Mtb DprE1 C387S): 0.39 µM (≈ 0.139 µg/mL) | MIC (Mtb DprE1 OE; [2]): 6.25 µM (≈ 2.23 µg/mL)

COc1ncnc(Cn2cc(C(=O)NCCO)c3ncc(C)cc32)c1C [Compound 17, N-(2-hydroxyethyl)-1-((6-methoxy-5-methylpyrimidin-4-yl)methyl)-6-methyl-1H-pyrrolo[3,2-b]pyridine-3-carboxamide]
MIC ([1]; Mycobacterium tuberculosis): 1.56 µM (≈ 0.554 µg/mL) | MIC, Mtb DprE1 C387G (Mtb DprE1 C387G): 0.78 µM (≈ 0.277 µg/mL) | MIC, Mtb DprE1 Y314H (Mtb DprE1 Y314H): >200 µM | MIC, Mtb DprE1 C387S (Mtb DprE1 C387S): 0.39 µM (≈ 0.139 µg/mL) | MIC (Mtb DprE1 OE; [2]): 100 µM (≈ 35.5 µg/mL)

Cc1ccc(Cn2cc(C(=O)NCCF)c3ncccc32)c(C)c1 [Compound 31, 1-(2,4-dimethylbenzyl)-N-(2-fluoroethyl)-1H-pyrrolo[3,2-b]pyridine-3-carboxamide]
Mtb DprE1 C387G MIC (Mtb DprE1 C387G): 0.78 µM | Mtb DprE1 Y314H MIC (Mtb DprE1 Y314H): 25 µM | Mtb DprE1 C387S (Mtb DprE1 C387S): 0.78 µM | MIC (Mtb DprE1 OE; [3]): 25 µM (≈ 8.13 µg/mL)

COc1cccc(F)c1Cn1cc(C(=O)NCC2CC2)c2ncccc21 [Compound 32, N-(cyclopropylmethyl)-1-(2-fluoro-6-methoxybenzyl)-1H-pyrrolo[3,2-b]pyridine-3-carboxamide]
Mtb DprE1 C387G MIC (Mtb DprE1 C387G): 0.39 µM | Mtb DprE1 Y314H MIC (Mtb DprE1 Y314H): 200 µM | Mtb DprE1 C387S (Mtb DprE1 C387S): 0.39 µM | MIC (Mtb DprE1 OE; [3]): 50 µM (≈ 17.7 µg/mL)

CC[C@@H](CO)NCCN[C@@H](CC)CO [Ethambutol]
MIC ([1]; Mycobacterium tuberculosis): 2 µM (≈ 0.409 µg/mL) | MIC, Mtb DprE1 C387G (Mtb DprE1 C387G): 4 µM (≈ 0.817 µg/mL) | MIC, Mtb DprE1 Y314H (Mtb DprE1 Y314H): 2.0 to 4.0 µM | MIC, Mtb DprE1 C387S (Mtb DprE1 C387S): 2 µM (≈ 0.409 µg/mL) | MIC (Mtb DprE1 OE; [2]): 2 µM (≈ 0.409 µg/mL)

NNC(=O)c1ccncc1 [Isoniazid]
MIC ([1]; Mycobacterium tuberculosis): 0.06 µM (≈ 0.00823 µg/mL) | MIC, Mtb DprE1 C387G (Mtb DprE1 C387G): 0.06 µM (≈ 0.00823 µg/mL) | MIC, Mtb DprE1 Y314H (Mtb DprE1 Y314H): 0.06 µM (≈ 0.00823 µg/mL) | MIC, Mtb DprE1 C387S (Mtb DprE1 C387S): 0.06 µM (≈ 0.00823 µg/mL) | MIC (Mtb DprE1 OE; [2]): 0.03 µM (≈ 0.00411 µg/mL)

COc1c(N2C[C@@H]3CCCN[C@@H]3C2)c(F)cc2c(=O)c(C(=O)O)cn(C3CC3)c12 [Moxifloxacin, reference compound]
MIC ([1]; Mycobacterium tuberculosis): 0.125 µM (≈ 0.0502 µg/mL) | MIC (Mtb DprE1 OE; [2]): 0.06 µM (≈ 0.0241 µg/mL)

CC1COc2c(N3CCN(C)CC3)c(F)cc3c(=O)c(C(=O)O)cn1c23 (centres unmarked) [Ofloxacin, reference compound]
MIC ([1]; Mycobacterium tuberculosis): 1 µM (≈ 0.361 µg/mL) | MIC (Mtb DprE1 OE; [2]): 0.5 µM (≈ 0.181 µg/mL)

CO[C@H]1/C=C/O[C@@]2(C)Oc3c(C)c(O)c4c(O)c(c(/C=N/N5CCN(C)CC5)c(O)c4c3C2=O)NC(=O)/C(C)=C\C=C\[C@H](C)[C@H](O)[C@@H](C)[C@@H](O)[C@@H](C)[C@H](OC(C)=O)[C@@H]1C [Rifampicin]
MIC (Mtb DprE1 OE; [2]): 0.003 µM (≈ 0.00247 µg/mL)

COc1nc2ccc(Br)cc2cc1[C@@H](c1ccccc1)[C@@](O)(CCN(C)C)c1cccc2ccccc12 [TMC207]
MIC ([1]; Mycobacterium tuberculosis): 0.6 µM (≈ 0.333 µg/mL) | MIC, Mtb DprE1 C387G (Mtb DprE1 C387G): 0.15 µM (≈ 0.0833 µg/mL) | MIC, Mtb DprE1 Y314H (Mtb DprE1 Y314H): 0.15 to 0.3 µM | MIC, Mtb DprE1 C387S (Mtb DprE1 C387S): 0.3 µM (≈ 0.167 µg/mL) | MIC (Mtb DprE1 OE; [2]): 0.15 µM (≈ 0.0833 µg/mL)

Clofazimine
MIC [1]: 0.125 µM | MIC, Mtb DprE1 C387G (Mtb DprE1 C387G): 0.03 µM | MIC, Mtb DprE1 Y314H (Mtb DprE1 Y314H): 0.125 µM | MIC, Mtb DprE1 C387S (Mtb DprE1 C387S): 0.03 µM | MIC (Mtb DprE1 OE; read-out: MIC, Mtb DprE1 OE): 0.06 µM

D-cycloserine
MIC [1]: 8 µM | MIC, Mtb DprE1 C387G (Mtb DprE1 C387G): 8 µM | MIC, Mtb DprE1 Y314H (Mtb DprE1 Y314H): 8.0 to 16.0 µM | MIC, Mtb DprE1 C387S (Mtb DprE1 C387S): 8 µM | MIC (Mtb DprE1 OE; read-out: MIC, Mtb DprE1 OE): 8 µM

From patent US9163020B2, “Azaindole compounds, synthesis thereof, and methods of using the same” (Global Alliance for TB Drug Development, priority 2013, dated 2015)
